# According to patent US7868005B2, “Pyrazinyl substituted piperazine-piperidines with CXCR3 antagonist activity” (Schering Corporation, priority 2005, dated 2011):
# Biological target: T1, human CXCR3 (N-delta 4) (Homo sapiens, UniProt P49682)
# T1 construct: CD8 leader (N); Flag; expressed in transfected cells; membranes prepared
# T1 sequence (P49682 5-368 limits assumed): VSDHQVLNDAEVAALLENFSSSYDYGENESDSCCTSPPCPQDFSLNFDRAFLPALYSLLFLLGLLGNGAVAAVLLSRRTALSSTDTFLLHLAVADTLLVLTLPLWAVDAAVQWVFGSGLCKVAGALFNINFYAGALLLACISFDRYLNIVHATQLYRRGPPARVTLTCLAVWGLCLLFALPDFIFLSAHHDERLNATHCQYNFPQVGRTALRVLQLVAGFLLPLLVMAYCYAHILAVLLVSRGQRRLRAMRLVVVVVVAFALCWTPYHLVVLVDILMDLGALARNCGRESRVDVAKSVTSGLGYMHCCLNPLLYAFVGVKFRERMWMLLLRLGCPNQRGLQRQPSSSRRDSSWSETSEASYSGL
# Experiment: Human CXCR3 (N-delta 4) Scintillation Proximity Assay (SPA), [125I] IP-10 binding to Ba/F3-hCXCR3 membranes
# Settings: IC50 rating, Table 1; read-out: IC50
row,Structure (SMILES),IC50 [µM]
1,CC[C@H]1CN(c2nc(N)c(C(=O)NCCO)nc2Cl)CCN1C1CCN(Cc2ccc(OC(F)(F)F)cc2OCCCCO)CC1 [compound 119],< 0.025
2,CC[C@H]1CN(c2nc(N)c(C(=O)NCCO)nc2Cl)CCN1C1CCN(Cc2ccc(Cl)cc2OCCO)CC1 [compound 124],< 0.025
3,CC[C@H]1CN(c2nc(N)c(C(=O)NCCO)nc2Cl)CCN1C1CCN(Cc2ccc(OC(F)(F)F)cc2OCCCO)CC1 [compound 125],< 0.025
4,CC[C@H]1CN(c2nc(N)c(C(=O)NCCO)nc2Cl)CCN1C1CCN(Cc2ccc(Cl)cc2C(N)=O)CC1 [compound 127],< 0.025
5,CC[C@H]1CN(c2nc(N)c(C(=O)NCCO)nc2Cl)CCN1C1CCN([C@H](CO)c2ccc(Cl)cc2)CC1 [compound 128],< 0.025
6,CC[C@H]1CN(c2nc(N)c(C(=O)NCCO)nc2Cl)CCN1C1CCN(Cc2ccc(Cl)cc2OCCNC(=O)C(C)(C)C)CC1 [compound 129],< 0.025
7,CC[C@H]1CN(c2nc(N)c(C(=O)NCCO)nc2Cl)CCN1C1CCN(Cc2ccc(Cl)cc2OCCNS(C)(=O)=O)CC1 [compound 130],< 0.025
8,CC[C@H]1CN(c2nc(N)c(C(=O)NCCO)nc2Cl)CCN1C1CCN(Cc2ccc(Cl)cc2OCCNC(=O)NC2CCCCC2)CC1 [compound 131],< 0.025
9,CC[C@H]1CN(c2nc(N)c(C(=O)NCCO)nc2Cl)CCN1C1CCN(Cc2ccc(Cl)cc2OCCNS(=O)(=O)C(F)(F)F)CC1 [compound 132],< 0.025
10,CC[C@H]1CN(c2nc(N)c(C(=O)NCCO)nc2Cl)CCN1C1CCN(Cc2ccc(F)cc2)CC1 [compound 133],< 0.025
11,CC[C@H]1CN(c2nc(N)c(C(=O)NCCO)nc2Cl)CCN1C1CCN(Cc2ccc(Cl)cc2OCCNS(N)(=O)=O)CC1 [compound 134],< 0.025
12,CC[C@H]1CN(c2nc(N)c(C(=O)NCCO)nc2Cl)CCN1C1CCN(Cc2ccc(F)c(F)c2N2CC[C@@H](O)C2)CC1 [compound 135],< 0.025
13,CC[C@H]1CN(c2nc(N)c(C(=O)NCCO)nc2Cl)CCN1C1CCN(Cc2ccc(Cl)cc2C#N)CC1 [compound 136],< 0.025
14,CC[C@H]1CN(c2nc(N)c(C(=O)NCCO)nc2Cl)CCN1C1CCN(Cc2cc(F)c(Cl)cc2OCCCO)CC1 [compound 139],< 0.025
15,CC[C@H]1CN(c2nc(N)c(C(=O)NCCO)nc2Cl)CCN1C1CCN(Cc2ccc(Cl)cc2N2CC[C@@H](O)C2)CC1 [compound 141],< 0.025
16,CC[C@H]1CN(c2nc(N)c(C(=O)NCCO)nc2Cl)CCN1C1CCN(Cc2cc(F)c(Cl)cc2OCCOC)CC1 [compound 143],< 0.025

row,Structure (SMILES),IC50 [µM]
1,CC[C@H]1CN(c2nc(N)c(C(=O)NCCO)nc2Cl)CCN1C1CCN(Cc2ccc(C#CC(C)(C)O)cc2)CC1 [compound 144],< 0.025
2,CC[C@H]1CN(c2nc(N)c(C(=O)NCCO)nc2Cl)CCN1C1CCN(Cc2ccc(Cl)cc2OCC(N)=O)CC1 [compound 149],< 0.025
3,CC[C@H]1CN(c2nc(N)c(C(=O)NCCO)nc2Cl)CCN1C1CCN([C@@H](C(=O)OC)c2ccc(Cl)cc2)CC1 [compound 150],< 0.025
4,CC[C@H]1CN(c2nc(N)c(C(=O)NCCO)nc2Cl)CCN1C1CCN(Cc2ccc(OC)cc2O)CC1 [compound 152],< 0.025
5,CC[C@H]1CN(c2nc(N)c(C(=O)NCCO)nc2Cl)CCN1C1CCN([C@H](CO)c2ccc(C#N)cc2)CC1 [compound 153],< 0.025
6,CC[C@H]1CN(c2nc(N)c(C(=O)NCCO)nc2Cl)CCN1C1CCN(Cc2ccc(-c3csnn3)cc2)CC1 [compound 154],< 0.025
7,CC[C@H]1CN(c2nc(N)c(C(=O)NCCO)nc2Cl)CCN1C1CCN(Cc2cc(F)c(Cl)cc2O)CC1 [compound 159],< 0.025
8,CC[C@H]1CN(c2nc(N)c(C(=O)NCCO)nc2Cl)CCN1C1CCN(Cc2ccc(Oc3ccc(F)cc3)cc2)CC1 [compound 162],< 0.025
9,CC[C@H]1CN(c2nc(N)c(C(=O)NCCO)nc2Cl)CCN1C1CCN(Cc2cc(F)c(Cl)cc2OCCNS(C)(=O)=O)CC1 [compound 165],< 0.025
10,CC[C@H]1CN(c2nc(N)c(C(=O)NCCO)nc2Cl)CCN1C1CCN(Cc2ccc(OC(F)(F)F)cc2O)CC1 [compound 166],< 0.025
11,CC[C@H]1CN(c2nc(N)c(C(=O)NCCO)nc2Cl)CCN1C1CCN(Cc2ccc(Cl)cc2OCCCO)CC1 [compound 169],< 0.025
12,CC[C@H]1CN(c2nc(N)c(C(=O)NCCO)nc2Cl)CCN1C1CCN(Cc2ccc(F)c(F)c2N2CC[C@H](O)C2)CC1 [compound 172],< 0.025
13,CC[C@H]1CN(c2nc(N)c(C(=O)NCCO)nc2Cl)CCN1C1CCN([C@@H](C(=O)OC)c2ccc(C#N)cc2)CC1 [compound 175],< 0.025
14,CC[C@H]1CN(c2nc(N)c(C(=O)NCCO)nc2Cl)CCN1C1CCN([C@@H](C(=O)O)c2ccc(Cl)cc2)CC1 [compound 177],0.025 to 0.1
15,CC[C@H]1CN(c2nc(N)c(C(=O)NCCO)nc2Cl)CCN1C1CCN(C(CCNC(C)=O)c2ccc(Cl)cc2)CC1 (some centres unmarked) [compound 179],0.025 to 0.1
16,CC[C@H]1CN(c2nc(N)c(C(=O)NCCO)nc2Cl)CCN1C1CCN(Cc2ccc(C#N)cc2O)CC1 [compound 180],0.025 to 0.1

# Results, then the compound that gave them:
row,IC50 [µM],Structure (SMILES)
1,< 0.025,CC[C@H]1CN(c2nc(N)c(C(=O)NCCO)nc2Cl)CCN1C1CCN(Cc2ccc(Cl)cc2OCCNC(=O)OC(C)(C)C)CC1 [compound 120]
2,< 0.025,CC[C@H]1CN(c2nc(N)c(C(=O)NCCO)nc2Cl)CCN1C1CCN(Cc2ccc(C#N)cc2)CC1 [compound 121]
3,< 0.025,CC[C@H]1CN(c2nc(N)c(C(=O)NCCO)nc2Cl)CCN1C1CCN([C@@H](CO)c2ccc(F)c(F)c2)CC1 [compound 122]
4,< 0.025,CC[C@H]1CN(c2nc(N)c(C(=O)NCCO)nc2Cl)CCN1C1CCN(Cc2ccc(F)c(F)c2)CC1 [compound 123]
5,< 0.025,CC[C@H]1CN(c2nc(N)c(C(=O)NCCO)nc2Cl)CCN1C1CCN(Cc2ccc(OC)cc2)CC1 [compound 126]
6,< 0.025,CC[C@H]1CN(c2nc(N)c(C(=O)NCCO)nc2Cl)CCN1C1CCN(Cc2ccc(Cl)cc2OCCNC(=O)NC(C)(C)C)CC1 [compound 137]
7,< 0.025,CC[C@H]1CN(c2nc(N)c(C(=O)NCCO)nc2Cl)CCN1C1CCN(Cc2ccc(Cl)cc2O)CC1 [compound 138]
8,< 0.025,CC[C@H]1CN(c2nc(N)c(C(=O)NCCO)nc2Cl)CCN1C1CCN(Cc2ccc(-c3ccc(F)cc3)cc2)CC1 [compound 140]
9,< 0.025,CC[C@H]1CN(c2nc(N)c(C(=O)NCCO)nc2Cl)CCN1C1CCN(Cc2ccc(Cl)cc2C(=O)OC)CC1 [compound 142]
10,< 0.025,CC[C@H]1CN(c2nc(N)c(C(=O)NCCO)nc2Cl)CCN1C1CCN(Cc2ccc(Cl)cc2C(C)(C)O)CC1 [compound 145]
11,< 0.025,CC[C@H]1CN(c2nc(N)c(C(=O)NCCO)nc2Cl)CCN1C1CCN(Cc2ccc(C#N)cc2OCC(=O)NCCO)CC1 [compound 146]
12,< 0.025,CC[C@H]1CN(c2nc(N)c(C(=O)NCCO)nc2Cl)CCN1C1CCN(Cc2ccc(Cl)cc2OCCNS(=O)(=O)N(C)C)CC1 [compound 147]
13,< 0.025,CCNC(=O)NCCC(c1ccc(Cl)cc1)N1CCC(N2CCN(c3nc(N)c(C(=O)NCCO)nc3Cl)C[C@@H]2CC)CC1 (some centres unmarked) [compound 148]
14,< 0.025,CC[C@H]1CN(c2nc(N)c(C(=O)NCCO)nc2Cl)CCN1C1CCN(Cc2ccc(Cl)cc2C(=N)NC)CC1 [compound 151]
15,< 0.025,CC[C@H]1CN(c2nc(N)c(C(=O)NCCO)nc2Cl)CCN1C1CCN(Cc2ccc(Cl)c(F)c2O)CC1 [compound 155]
16,< 0.025,CC[C@H]1CN(c2nc(N)c(C(=O)NCCO)nc2Cl)CCN1C1CCN(Cc2ccc(Cl)cc2NC(N)=O)CC1 [compound 156]
17,< 0.025,CCNC(=O)Nc1cc(Cl)ccc1CN1CCC(N2CCN(c3nc(N)c(C(=O)NCCO)nc3Cl)C[C@@H]2CC)CC1 [compound 157]
18,< 0.025,CC[C@H]1CN(c2nc(N)c(C(=O)NCCO)nc2Cl)CCN1C1CCN(Cc2ccc(F)cc2F)CC1 [compound 158]
19,< 0.025,CC[C@H]1CN(c2nc(N)c(C(=O)NCCO)nc2Cl)CCN1C1CCN(Cc2ccc(Cl)cc2C(=O)NC)CC1 [compound 160]
20,< 0.025,CC[C@H]1CN(c2nc(N)c(C(=O)NCCO)nc2Cl)CCN1C1CCN(Cc2ccc(Cl)cc2-c2nnn[nH]2)CC1 [compound 161]
21,< 0.025,CC[C@H]1CN(c2nc(N)c(C(=O)NCCO)nc2Cl)CCN1C1CCN(Cc2ccc(C#N)cc2OCCOC)CC1 [compound 163]
22,< 0.025,CC[C@H]1CN(c2nc(N)c(C(=O)NCCO)nc2Cl)CCN1C1CCN(Cc2ccc(Cl)cc2C(=O)O)CC1 [compound 164]
23,< 0.025,CC[C@H]1CN(c2nc(N)c(C(=O)NCCO)nc2Cl)CCN1C1CCN(Cc2ccc(Cl)cc2C2=NCCN2)CC1 [compound 167]
24,< 0.025,CC[C@H]1CN(c2nc(N)c(C(=O)NCCO)nc2Cl)CCN1C1CCN(Cc2ccc(OC(F)(F)F)cc2OCCO)CC1 [compound 168]
25,< 0.025,CC[C@H]1CN(c2nc(N)c(C(=O)NCCO)nc2Cl)CCN1C1CCN(C(CCO)c2ccc(Cl)cc2)CC1 (some centres unmarked) [compound 170]
26,< 0.025,CC[C@H]1CN(c2nc(N)c(C(=O)NCCO)nc2Cl)CCN1C1CCN(Cc2ccc(Cl)cc2-c2cnc(N)nc2)CC1 [compound 171]
27,< 0.025,CC[C@H]1CN(c2nc(N)c(C(=O)NCCO)nc2Cl)CCN1C1CCN(Cc2ccc(C#N)cc2OCCO)CC1 [compound 173]
28,< 0.025,CC[C@H]1CN(c2nc(N)c(C(=O)NCCO)nc2Cl)CCN1C1CCN(Cc2ccc(OC(F)(F)F)cc2OCC(N)=O)CC1 [compound 174]
29,< 0.025,CC[C@H]1CN(c2nc(N)c(C(=O)NCCO)nc2Cl)CCN1C1CCN(Cc2ccc(Cl)cc2C(=O)NCCO)CC1 [compound 176]
30,0.025 to 0.1,CC[C@H]1CN(c2nc(N)c(C(=O)NCCO)nc2Cl)CCN1C1CCN(Cc2ccc(F)c(F)c2O)CC1 [compound 178]
